Earlier results in patent publication US20050158380A1, “Sustained release oral dosage forms of gabapentin” (priority 2002, published 2005).

Conditions: in vivo

Compound: NCC1(CC(=O)O)CCCCC1 [Gabapentin, 1-(aminomethyl)cyclohexaneacetic acid]
- half-life: 5 to 7 h
